Test results published in patent US9204653B2, “5-fluoro pyrimidine derivatives” (DOW AGROSCIENCES LLC, priority 2008, dated 2015).
Values joined by “and” are separate entries in the source; they are usually repeats but may differ in a detail not shown here. Identical values can stand only once. Like-named read-outs stand apart in the source and are kept apart here.

Tests used:
[1] = test system: Mycosphaerella fijiensis; BAYER Code MYCOFI; experiment: Black Sigatoka disease of banana; format: in vivo, Mycosphaerella fijiensis on field grown banana plants; settings: % disease control rating, banana leaves, natural inoculum
Description: 5. Evaluation of Fungicidal Activity: Black Sigatoka Disease of Banana (Mycosphaerella fijiensis; BAYER Code MYCOFI): […] The leaves were subsequently allowed to become infected by natural inoculum, and were visually assessed for percent disease control ˜40-45 days later. The following tables present the activity of typical compounds of the present disclosure when evaluated in these experiments. The effectiveness of the test compounds in controlling disease was determined by assessing the severity of disease on treated plants, then converting the severity to percent control based on the level of disease on untreated, inoculated plants. In each case of Tables I-V the rating scale is as follows: […]

[2] = test system: Mycosphaerella graminicola; Anamorph: Septoria tritici; Bayer Code SEPTTR; experiment: Leaf blotch of wheat, foliar fungicide treatment, one day protectant (1DP) or three day curative (3DC); format: in vivo, Septoria tritici on wheat plants (variety Yuma); settings: Zymoseptoria tritici; for pest or weed control at 25 ppm / pest or weed control at 100 ppm: percent disease control rating; for pest or weed control at 50 ppm / pest or weed control at 200 ppm: % disease control rating, one day protectant
[3] = test system: Cercospora beticola; Bayer Code CERCBE; experiment: Leaf spot of sugar beets; format: in vivo, Cercospora beticola on sugar beets (variety HH-88); settings: 24 h, % disease control rating, one day protectant; for pest or weed control at 25 ppm: read-out: CERCBE 1 DP 25 ppm; for pest or weed control at 75 ppm: read-out: CERCBE 1 DP 75 ppm
[4] = test system: Venturia inaequalis; Bayer Code VENTIN; experiment: Apple scab; format: in vivo; settings: 24 h, % disease control rating, one day protectant; for pest or weed control at 25 ppm: read-out: VENTIN 1 DP 25 ppm; for pest or weed control at 75 ppm: read-out: VENTIN 1 DP 75 ppm
[5] = test system: Mycosphaerella graminicola; Anamorph: Septoria tritici; Bayer Code SEPTTR; experiment: Fungicidal activity as a seed treatment: leaf blotch of wheat; format: in vivo, Septoria tritici on wheat variety Yuma; settings: for % Control (SEPTTR, seed treatment): 10% SC formulation; for Pot 1 to Pot 8 values (SEPTTR disease severity on treated plants): single pots, 8 replicates
Source text: 6. Evaluation of Fungicidal Activity as a Seed Treatment: Leaf Blotch of Wheat (Mycosphaerella graminicola; Anamorph: Septoria tritici; Bayer Code […]) […] Seeds (10 seeds/pot) were planted in 1 inch pot containing 50% mineral soil/50% soil-less Metro mix. 8-day old seedlings were inoculated with an aqueous spore suspension of Septoria tritici, and 8 pots of plants were inoculated for each fungicide rate. After inoculation, plants were kept in 100% relative humidity (one day in a dark dew chamber followed by two days in a lighted mist room) to allow establishment of infection. The plants were then transferred to a greenhouse for disease to develop. When infection levels on untreated plants reached 95 to 100%, disease severities on treated plants were assessed. […] The following tables present the activity of typical compounds of the present disclosure when evaluated in these experiments. The effectiveness of the test compounds in controlling disease was determined by assessing the severity of disease on treated plants, then converting the severity to percent control based on the level of disease on untreated, inoculated plants. In each case of Tables I-V the rating scale is as follows: […]

[6] = 24 h, one day protectant (1DP), read-out: SETTTR 1DP 25 ppm
[7] = 24 h, one day protectant (1DP), read-out: SEPTTR 1DP 100 ppm
[8] = 72 h, three day curative (3DC), read-out: SEPTTR 3DC 25 ppm
[9] = 72 h, three day curative (3DC), read-out: SEPTTR 3DC 100 ppm

| SMILES | pest or weed control at 25 ppm [3] [%] | pest or weed control at 75 ppm [3] [%] | pest or weed control at 25 ppm [4] [%] | pest or weed control at 75 ppm [4] [%] | pest or weed control at 50 ppm ([2]; 24 h) [%] | pest or weed control at 200 ppm ([2]; 24 h) [%] | also measured |
| --- | --- | --- | --- | --- | --- | --- | --- |
| Nc1nc(OCc2ccc(F)cc2)ncc1F [Compound 1, 5-Fluoro-2-(4-fluorobenzyloxy)pyrimidin-4-amine] | 26 to 50 | 26 to 50 | 76 to 100 | 76 to 100 |  |  | MYCOFI 1 DP 50 ppm ([1]; 50 ppm): C (26-50); MYCOFI 1 DP 200 ppm ([1]; 200 ppm): B (51-75); pest or weed control at 25 ppm [2, 6]: 76 to 100%; pest or weed control at 100 ppm [2, 7]: 76 to 100%; pest or weed control at 25 ppm [2, 8]: 76 to 100%; pest or weed control at 100 ppm [2, 9]: 76 to 100% |
| Cc1ccc(COc2ncc(F)c(N)n2)cc1 [Compound 15] |  |  | 76 to 100 | 76 to 100 |  |  | control of SEPTTR via seed treatment (in words) ([5]; lowest test rate of 1.48 g ai/100 kg seeds): nearly complete control; % Control (SEPTTR, seed treatment) ([5]; rate 1.48 g/100 kg seeds): A (76-100); Pot 1 to Pot 8 values (SEPTTR disease severity on treated plants) ([5]; rate 1.48 g/100 kg seeds): 3% (3×) and 1% (2×) and 0% (3×); % Control (SEPTTR, seed treatment) ([5]; rate 4.44 g/100 kg seeds): A (76-100); Pot 1 to Pot 8 values (SEPTTR disease severity on treated plants) ([5]; rate 4.44 g/100 kg seeds): 0% (5×) and 1% (3×); % Control (SEPTTR, seed treatment) ([5]; rate 13.3 g/100 kg seeds): A (76-100); Pot 1 to Pot 8 values (SEPTTR disease severity on treated plants) ([5]; rate 13.3 g/100 kg seeds): 0% (4×) and 1% (4×); % Control (SEPTTR, seed treatment) ([5]; rate 40 g/100 kg seeds): A (76-100); Pot 1 to Pot 8 values (SEPTTR disease severity on treated plants) ([5]; rate 40 g/100 kg seeds): 0% (5×) and 1% (3×); % Control (SEPTTR, seed treatment) ([5]; rate 120 g/100 kg seeds): A (76-100); Pot 1 to Pot 8 values (SEPTTR disease severity on treated plants) ([5]; rate 120 g/100 kg seeds): 0%; pest or weed control at 25 ppm [2, 6]: 76 to 100%; pest or weed control at 100 ppm [2, 7]: 76 to 100%; pest or weed control at 25 ppm [2, 8]: 76 to 100%; pest or weed control at 100 ppm [2, 9]: 76 to 100% |
| Cc1cnc(CNc2nc(OCc3ccco3)ncc2F)cn1 [Compound 849] | 26 to 50 | 26 to 50 | 76 to 100 | 51 to 75 | 76 to 100 | 76 to 100 |  |
| Fc1cnc(OC2CCCCC2)nc1NCc1ccc(Cl)nc1 [Compound 858] | 26 to 50 | 26 to 50 | 26 to 50 | 0 to 25 | 0 to 25 | 26 to 50 |  |
| Fc1cnc(OCc2ccc(OC(F)(F)F)cc2)nc1NCc1cccs1 [Compound 860] | 0 to 25 | 26 to 50 | 26 to 50 | 51 to 75 |  | 76 to 100 |  |
| Fc1ccccc1CNc1nc(OCC(F)(F)F)ncc1F [Compound 894] | 0 to 25 | 0 to 25 | 0 to 25 | 26 to 50 | 0 to 25 | 0 to 25 |  |
| Nc1nc(OCCn2cncn2)ncc1F [Compound 933] | 26 to 50 | 26 to 50 | 0 to 25 | 26 to 50 | 26 to 50 | 51 to 75 |  |
| Fc1cnc(OC2CCCCC2)nc1N1CCOCC1 [Compound 941] | 0 to 25 | 0 to 25 | 51 to 75 | 26 to 50 | 0 to 25 | 0 to 25 |  |
| Fc1cnc(OCc2ccccn2)nc1NC1CC1 [Compound 952] | 0 to 25 | 0 to 25 | 0 to 25 | 0 to 25 |  | 26 to 50 |  |
